# Laboratory results from patent US20230012368A1 (Hoffmann-La Roche Inc., priority 2018, published 2023).
# Counter-ions that a name gives are not always drawn.
# Tested on: Acinetobacter baumannii ATCC 17978
# Assay: Antimicrobial susceptibility testing: 90% growth inhibitory concentration (IC90) determination
# Format: cell-based
# Settings: 90% growth inhibitory concentration; Acinetobacter baumannii ATCC17978; Iso-Sensitest broth, OD 600 nm over 16h; read-out: ATCC17978 IC90
# Outline: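 Growth of the Acinetobacter baumannii strain was followed by optical density at 600 nm every 20 minutes for 16h at 35±2° C. Inoculum was ~5×10^(5) CFU/ml in Iso-Sensitest medium, with twofold compound dilutions (e.g. 50 to 0.097 μM final). The 90% inhibitory concentration was derived in log-phase growth.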
row,Structure (SMILES),IC90 [nM]
1,"COc1ccc(-c2cnc3c(Nc4ccc(C(=O)NCCC5CCOCC5)c(C)c4)nccn23)cc1F [Example 37, 4-[[3-(3-fluoro-4-methoxy-phenyl)imidazo[1,2-a]pyrazin-8-yl]amino]-2-methyl-N-(2-tetrahydropyran-4-ylethyl)benzamide; 2,2,2-trifluoroacetic acid]",240
2,"CCc1cc(Nc2nccn3c(-c4ccc(OC)c(F)c4Cl)cnc23)ccc1C(=O)NCCCN [Example 389, N-(3-aminopropyl)-4-[[3-(2-chloro-3-fluoro-4-methoxyphenyl)imidazo[1,2-a]pyrazin-8-yl]amino]-2-ethylbenzamide; hydrochloride]",500
3,"COc1ccc(-c2cnc3c(Nc4ccc(C(=O)NCCN5CCNCC5)c(C)c4)nccn23)c(F)c1F [Example 56, 4-((3-(2,3-difluoro-4-methoxyphenyl)imidazo [1,2-a]pyrazin-8-yl)amino)-2-methyl-N-(2-(piperazin-1-yl)ethyl)benzamide hydrochloride]",250
4,"CCc1cc(Nc2nccn3c(-c4ccc(OC)c(F)c4F)cnc23)ccc1C(=O)NCCN [Example 117, N-(2-aminoethyl)-4-((3-(2,3-difluoro-4-methoxyphenyl)imidazo[1,2-a]pyrazin-8-yl)amino)-2-ethylbenzamide dihydrochloride]",560

# Same assay, conditions: Acinetobacter baumannii, ATCC17978, 16 h, 90% growth inhibitory concentration; Acinetobacter baumannii ATCC17978; Iso-Sensitest broth, OD 600 nm over 16h; read-out: ATCC17978 IC90
row,Structure (SMILES),IC90 [nM]
1,"CCc1cc(Nc2nccn3c(-c4ccc(Cl)c(F)c4F)cnc23)ccc1C(=O)NCCCN1CCC1 [Example 386, N-[3-(azetidin-1-yl)propyl]-4-[[3-(4-chloro-2,3-difluorophenyl)imidazo[1,2-a]pyrazin-8-yl]amino]-2-ethylbenzamide]",950
2,"COc1ccc(-c2cnc3c(Nc4ccc(C(=O)N[C@@H](C)CNC(=N)C(C)C)c(Cl)c4)nccn23)c(F)c1F [Example 500, 2-chloro-4-[[3-(2,3-difluoro-4-methoxyphenyl)imidazo[1,2-a]pyrazin-8-yl]amino]-#N!- [(2#S!)-1-(2-methylpropanimidoylamino)propan-2-yl]benzamide]",310
3,"CCc1cc(Nc2nccn3c(-c4ccc(OCC#N)c(F)c4F)cnc23)ccc1C(=O)NCCNC(=O)[C@@H](N)[C@@H](C)O [Example 138, N-[2-[[(2S,3R)-2-amino-3-hydroxy-butanoyl]amino]ethyl]-4-[[3-[4-(cyanomethoxy)-2,3-difluoro-phenyl]imidazo[1,2-a]pyrazin-8-yl]amino]-2-ethyl-benzamide formate]",100
4,"COc1ccc(-c2cnc3c(Nc4ccc(C(=O)N(C)CCN)c(C)c4)nccn23)cc1 [Example 32, N-(2-aminoethyl)-4-((3-(4-methoxyphenyl)imidazo [1,2-a]pyrazin-8-yl)amino)-N,2-dimethylbenzamide]",1700
5,"COc1ccc(-c2cnc3c(Nc4ccc(C(=O)NC[C@@H](O)[C@@H](O)[C@H](O)[C@H](O)CO)c(C)c4)nccn23)cc1F [Example 288, 4-[[3-(3-fluoro-4-methoxyphenyl)imidazo[1,2-a]pyrazin-8-yl]amino]-2-methyl-N-[(2R,3R,4R,5R)-2,3,4,5,6-pentahydroxyhexyl]benzamide]",3000
6,"COc1ccc(-c2cnc3c(Nc4ccc(C(=O)NCC5CNCCO5)c(Cl)c4)nccn23)cc1F (centres unmarked) [Example 233, 2-chloro-4-[[3-(3-fluoro-4-methoxyphenyl)imidazo[1,2-a]pyrazin-8-yl]amino]-N-(morpholin-2-ylmethyl)benzamide; hydrochlo-ride]",1300
7,"COc1ccc(-c2cnc3c(Nc4ccc(C(=O)N[C@H](C)CN)c(C)c4)nccn23)c(F)c1F [Example 506, #N!-[(2#R!)-1-aminopropan-2-yl]-4-[[3-(2,3-difluoro-4-methoxyphenyl)imidazo[1,2-a]pyrazin-8-yl]amino]-2-methylbenzamide;dihydrochlo-ride]",130
8,"CC[C@@]1(O)CN[C@H](C(=O)NCCNC(=O)c2ccc(Nc3nccn4c(-c5ccc(OCC#N)c(F)c5F)cnc34)cc2C)C1 [Example 366, (2S,4S)-N-[2-[[4-[[3-[4-(cyanomethoxy)-2,3-difluorophenyl]imidazo[1,2-a]pyrazin-8-yl]amino]-2-methylbenzoyl]amino]ethyl]-4-ethyl-4-hydroxypyrrolidine-2-carboxamide]",100
9,"Cc1cc(Nc2nccn3c(-c4ccc(OC(F)F)cc4)cnc23)ccc1C(=O)NCC(=O)N1CCOCC1 [Example 252, 4-[[3-[4-(difluoromethoxy)phenyl]im-idazo[1,2-a]pyrazin-8-yl]amino]-2-methyl-N-(2-morpholin-4-yl-2-oxoethyl)benzamide]",2800
10,"CCc1cc(Nc2nccn3c(-c4ccc(OC)c(F)c4F)cnc23)ccc1C(=O)NCCCn1ccnc1 [Example 290, 4-[[3-(2,3-difluoro-4-methoxyphenyl)imidazo[1,2-a]pyrazin-8-yl]amino]-2-ethyl-N-(3-imidazol-1-ylpropyl)benzamide]",50
11,"CCc1cc(Nc2nccn3c(-c4ccc(OC)c(F)c4F)cnc23)ccc1C(=O)NCCNC(=O)[C@@H]1C[C@@H](O)CN1 [Example 370, (2S,4R)-N-[2-[[4-[[3-(2,3-difluoro-4-methoxyphenyl)imidazo[1,2-a]pyrazin-8-yl]amino]-2-ethylbenzoyl]amino]ethyl]-4-hydroxypyrrolidine-2-carboxamide]",140
12,"CCc1cc(Nc2nccn3c(-c4ccc(OC)c(F)c4F)cnc23)ccc1C(=O)NCc1ccncc1 [Example 560, 4-((3-(2,3-difluoro-4-methoxyphenyl)imidazo[1,2-a]pyrazin-8-yl)amino)-2-ethyl-N-(pyridin-4-ylmethyl)benzamide formate]",80
13,"CCc1cc(Nc2nccn3c(-c4ccc(OC)c(F)c4F)cnc23)ccc1C(=O)NCCN1CCN(CCCC(=O)O)CC1 [Example 444, 4-(4-(2-(4-((3-(2,3-difluoro-4-methoxyphenyl)imidazo[1,2-a]pyrazin-8-yl)amino)-2-ethylbenzamido)ethyl)pipera-zin-1-yl)butanoic acid]",320
14,"COc1ccc(-c2cnc3c(Nc4ccc(C(=O)N(C)CC(=O)N5CCOCC5)c(C)c4)nccn23)cc1F [Example 8, 4-[[3-(3-fluoro-4-methoxy-phenyl)imidazo[1,2-a]pyrazin-8-yl]amino]-N,2-dimethyl-N-(2-morpholino-2-oxo-ethyl)benzamide]",2000
15,"CN(CCN1CCNCC1)C(=O)c1ccc(Nc2nccn3c(-c4ccc(OCC#N)c(F)c4F)cnc23)cc1Cl [Example 74, 2-chloro-4-((3-(4-(cyanomethoxy)-2,3-difluorophenyl)imidazo [1,2-a]pyrazin-8-yl)amino)-N-methyl-N-(2-(piperazin-1-yl)ethyl)benzamide]",60
16,"C#CCOc1ccc(-c2cnc3c(Nc4ccc(C(=O)NCCCN)c(CC)c4)nccn23)c(F)c1F [Example 394, N-(3-aminopropyl)-4-[[3-(2,3-difluoro-4-prop-2-ynoxy-phenyl)imidazo[1,2-a]pyrazin-8-yl]amino]-2-ethyl-benzamide; formic acid]",310
17,"Cc1cc(Nc2nccn3c(-c4ccc(Cl)c(F)c4F)cnc23)ccc1C(=O)N(C)CCCN [Example 228, N-(3-aminopropyl)-4-[[3-(4-chloro-2,3-difluorophenyl)imidazo[1,2-a]pyrazin-8-yl]amino]-N,2-dimethylbenzamide;hydrochlo-ride]",1200
18,"Cc1cc(Nc2nccn3c(-c4ccc(OC(F)F)cc4)cnc23)ccc1C(=O)N(C)CC(=O)N1CCN(C)CC1 [Example 170, 4-[[3-[4-(difluoromethoxy)phenyl]im-idazo[1,2-a]pyrazin-8-yl]amino]-N,2-dimethyl-N-[2-(4-methylpiperazin-1-yl)-2-oxoethyl]benzamide]",1900
19,"COc1ccc(-c2cnc3c(Nc4ccc(C(=O)N(C)CCCN)cc4)nccn23)cc1 [Example 33, N-(3-aminopropyl)-4-((3-(4-methoxyphenyl)imidazo [1,2-a]pyrazin-8-yl)amino)-N-methylbenzamide hydrochloride]",4900
20,"CCc1cc(Nc2nccn3c(-c4ccc(OC)c(F)c4F)cnc23)ccc1C(=O)NC(C)(C)CN [Example 99, N-(1-amino-2-methylpropan-2-yl)-4-((3-(2,3-difluoro-4-methoxyphenyl)imidazo [1,2-a]pyrazin-8-yl)amino)-2-ethylbenzamide hydrochloride]",350
21,"COc1ccc(-c2cnc3c(Nc4ccc5c(c4)CCNC5=O)nccn23)c(Cl)c1 [Example 179, 6-[[3-(2-chloro-4-methoxyphenyl)imidazo[1,2-a]pyrazin-8-yl]amino]-3,4-dihydro-2H-isoquinolin-1-one]",1700
22,"CCc1cc(Nc2nccn3c(-c4ccc(OC(F)F)c(F)c4F)cnc23)ccc1C(=O)NCC(=O)NCCN(C)C [Example 404, 4-((3-(4-(difluoromethoxy)-2,3-difluorophenyl)imidazo[1,2-a]pyrazin-8-yl)amino)-N-(2-((2-(dimethylamino)ethyl)amino)-2-oxoethyl)-2-ethylbenzamide]",360
23,"CCc1cc(Nc2nccn3c(-c4ccc(OC)c(F)c4F)cnc23)ccc1C(=O)NCC1(F)CNC1 [Example 526, 4-((3-(2,3-difluoro-4-methoxyphenyl)imidazo[1,2-a]pyrazin-8-yl)amino)-2-ethyl-N-((3-fluoroazetidin-3-yl)methyl)benzamide hydrochloride]",210
24,"CCc1cc(Nc2nccn3c(-c4ccc(OC)c(F)c4F)cnc23)ccc1C(=O)NCC(O)CN1CCCC1 (centres unmarked) [Example 304, 4-[[3-(2,3-difluoro-4-methoxyphenyl)imidazo[1,2-a]pyrazin-8-yl]amino]-2-ethyl-N-(2-hydroxy-3-pyrrolidin-1-ylpropyl)benzamide]",360
25,"COc1ccc(-c2cnc3c(Nc4ccc(C(=O)NCCCCCN)c(C)c4)nccn23)cc1 [Example 184, N-(5-aminopentyl)-4-[[3-(4-methoxyphenyl)imidazo[1,2-a]pyrazin-8-yl]amino]-2-methylbenzamide; hydrochlo-ride]",220
